Measurements: publication PMC9223267, “Serine hydroxymethyltransferase as a potential target of antibacterial agents acting synergistically with one-carbon metabolism-related inhibitors” (Communications Biology, 2022)
Like-named read-outs stand apart in the source and are kept apart here.

Assays:
E. faecium [1] = test: Antibacterial activity evaluation (turbidity, OD600); assay type: cell-based, Enterococcus faecium (JCM5804); conditions: for EC50: Enterococcus faecium
Summary of the method: (§1)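 Inocula set to 1.0 McFarland (enterococci) or 0.5 McFarland (S. aureus, E. coli), then diluted 1:200 in Mueller–Hinton broth. Growth read as OD600; EC50 given with standard error.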

E. faecalis = test: as above; assay type: cell-based, Enterococcus faecalis (JCM7783); conditions: Enterococcus faecalis, E. faecalis JCM7783
Summary of the method: as §1

E. faecium [2] = test: Antibacterial assay with an excess concentration of biomolecules (Ser, Gly, inosine, dT, FA); assay type: cell-based, Enterococcus faecium (JCM5804); conditions: Enterococcus faecium, JCM5804, E. faecium JCM5804
efmSHMT [3] = biological target: efmSHMT (Enterococcus faecium, UniProt I3U4H4, M1V); test: biochemical; assay type: binding
Procedure: After adding Me-THF, the efmSHMT solution was incubated for 30 min at room temperature. The optical density at 500 and 600 nm (OD500 and OD600) were then measured using a nanodrop spectrophotometer[24],[25]. OD600 was used as the background. After detection, each concentration of inhibitor was added to the efmSHMT solution and incubated for 30 min at room temperature. OD500 and OD600 were measured. The relative OD500 intensity was calculated as relative OD500 = (OD500 – OD600)/(MAXOD500 – OD600), where MAXOD500 is the average OD500 value in the presence of 1000, 2000 and 4000 μM Me-THF without inhibitors. […] Here, IC50 is the concentration of inhibitor added to the efmSHMT solution and [Me-THF] is the EC50 in the presence of the inhibitor concentration. [EC50 without inhibitor] is the EC50 of Me-THF in the absence of the inhibitor.

E. faecium [4] = test: Bacterial viability assay (Microbial Viability Assay Kit-WST, OD450); assay type: cell-based, Enterococcus faecium; conditions: for EC50: Enterococcus faecium
Procedure: Living E. faecium were determined using the Microbial Viability Assay Kit-WST (DOJINDO, Tokyo, Japan). […] Positive control wells included bacteria seeded into MH broth without compounds, and the negative control wells contained MH broth only. […] Five microlitres of the colouring reagent were added to each well of the 96-well plate every 2 h after starting incubation with each compound.

S. aureus = test: Antibacterial activity evaluation (turbidity, OD600); assay type: cell-based, Staphylococcus aureus (ATCC29213); conditions: Staphylococcus aureus, S. aureus ATCC29213
Summary of the method: as §1

E. coli = test: as above; assay type: cell-based, Escherichia coli (ATCC25922); conditions: Escherichia coli, E. coli ATCC25922
Summary of the method: as §1

ecSHMT = biological target: T1, ecSHMT (Escherichia coli, UniProt P0A825); test: Thermal stability analysis using differential scanning fluorimetry (DSF); assay type: binding, E. coli; conditions: final drug concentration 50 μM
T1 construct: His tag (followed by PreScission protease cleavage site) (N, cleaved yes); made in house; host or cells: E. coli BL21(DE3)
Procedure: Protein samples were prepared as 20 μL aliquots containing 0.1 mg/mL protein (efmSHMT/ecSHMT), 1 μL of the ligand in DMSO (final drug concentration, 50 μM) and 2% or 4% SYPRO Orange (Invitrogen, MA, USA). Measurements were taken using StepOnePlus real-time PCR (Thermo Fisher Scientific) (temperature increment, 1.8%; range, 20–95 °C). Melting points were evaluated as the half-point of the maximum intensity of each curve.

efmSHMT [5] = assay type: binding, Enterococcus faecium; conditions: DSF; final drug concentration 50 μM
Procedure: Protein samples were prepared as 20 μL aliquots containing 0.1 mg/mL protein (efmSHMT/ecSHMT), 1 μL of the ligand in DMSO (final drug concentration, 50 μM) and 2% or 4% SYPRO Orange (Invitrogen, MA, USA). […] Melting points were evaluated as the half-point of the maximum intensity of each curve.

[6] = read-out: pEC50 ± S.E. (converted)

efmSHMT (Enterococcus faecium, UniProt I3U4H4, M1V), sequence (I3U4H4 whole entry M1V): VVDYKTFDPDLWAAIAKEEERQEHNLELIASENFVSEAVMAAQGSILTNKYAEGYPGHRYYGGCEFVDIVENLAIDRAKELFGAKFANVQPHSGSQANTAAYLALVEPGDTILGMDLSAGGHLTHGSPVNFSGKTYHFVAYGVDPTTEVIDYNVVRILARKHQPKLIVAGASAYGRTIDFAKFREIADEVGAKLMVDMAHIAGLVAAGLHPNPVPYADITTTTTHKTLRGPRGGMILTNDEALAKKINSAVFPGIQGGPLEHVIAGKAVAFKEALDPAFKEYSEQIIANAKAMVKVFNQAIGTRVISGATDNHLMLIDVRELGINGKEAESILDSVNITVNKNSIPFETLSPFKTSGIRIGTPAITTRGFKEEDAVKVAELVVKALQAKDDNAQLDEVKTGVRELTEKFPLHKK
T1 sequence (P0A825 whole entry): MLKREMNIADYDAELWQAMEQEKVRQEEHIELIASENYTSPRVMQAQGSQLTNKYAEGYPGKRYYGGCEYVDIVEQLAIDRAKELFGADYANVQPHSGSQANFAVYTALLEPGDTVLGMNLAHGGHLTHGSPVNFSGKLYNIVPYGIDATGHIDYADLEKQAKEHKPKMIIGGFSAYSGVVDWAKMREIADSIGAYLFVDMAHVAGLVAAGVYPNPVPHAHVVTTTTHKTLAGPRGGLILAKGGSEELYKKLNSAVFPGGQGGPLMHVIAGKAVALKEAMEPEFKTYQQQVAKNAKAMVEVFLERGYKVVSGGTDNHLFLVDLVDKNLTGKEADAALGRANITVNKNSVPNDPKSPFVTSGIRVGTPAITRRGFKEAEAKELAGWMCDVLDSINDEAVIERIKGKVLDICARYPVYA

`Cc1n[nH]c2c1[C@](c1cc(CO)cc(-c3ccccc3)c1)(C(C)C)C(C#N)=C(N)O2` [(+)-SHIN-1] showed an EC50 (E. faecium [1]; read-out: 50% effective concentration (EC50), growth of E. faecium, order of magnitude given) of 0.01 nM, an EC50 (E. faecium [1]; E. faecium JCM5804, read-out: EC50) of 0.031 nM and an EC50 (E. faecium [1]; E. faecium JCM5804, read-out: pEC50 ± S.E. (converted)) of 0.0316 nM. For the same compound, the EC50 (E. faecium [1]; E. faecium, value of the response letter (earlier manuscript version), read-out: EC50 (turbidity)) was 0.044 ± 0.028 nM, the “50% effective concentration (EC50)” value (E. faecium [1]; growth of E. faecium, order of magnitude given) was 10^–10 to 10^–11 M and the EC50 (E. faecalis; read-out: EC50) was greater than 2000 nM. For the same compound, the EC50 (E. faecalis; [6]) was greater than 2000 nM, the EC50 (E. faecium [2]; 1 mM Inosine, read-out: EC50) was 0.36 nM and the EC50 (E. faecium [2]; 1 mM Inosine, read-out: pEC50 ± S.E. (converted)) was 0.398 nM. It also gave an EC50 (E. faecium [2]; 1 mM deoxythymidine, read-out: EC50) greater than 2000 nM, an EC50 (E. faecium [2]; 1 mM deoxythymidine, read-out: pEC50 ± S.E. (converted)) greater than 2000 nM and an EC50 (E. faecium [2]; 10 mM Glycine, read-out: EC50) of 0.12 nM. The EC50 (E. faecium [2]; 10 mM Glycine, read-out: pEC50 ± S.E. (converted)) was 0.126 nM, the EC50 (E. faecium [2]; 100 mM Serine, read-out: EC50) was 0.43 nM and the EC50 (E. faecium [2]; 100 mM Serine, read-out: pEC50 ± S.E. (converted)) was 0.398 nM. The EC50 (E. faecium [2]; 0.1 M folate, read-out: EC50) was greater than 2000 nM, the EC50 (E. faecium [2]; 0.1 M folate, read-out: pEC50 ± S.E. (converted)) was greater than 2000 nM and the Ki (efmSHMT [3]; Ki, 2.5 μM efmSHMT, 10 mM Gly and 100 μM Ser, Cheng-Prusoff) was 8.8 nM. The Ki (efmSHMT [3]; Ki, 5 μM efmSHMT, 10 mM Gly and 100 μM Ser, Cheng-Prusoff) was 28 nM, the Ki (efmSHMT [3]; actual Ki (bound, as the assay's efmSHMT detection limit is 2.5 μM), efmSHMT) was less than 8.8 nM and the Ki (efmSHMT [3]; pKi ± pSE, 2.5 μM efmSHMT, 10 mM Gly and 100 μM Ser) was 7.94 nM. For the same compound, the Ki (efmSHMT [3]; pKi ± pSE, 5 μM efmSHMT, 10 mM Gly and 100 μM Ser) was 25.1 nM, the “mode of antibacterial action (time-dependent bacterial viability)” value (E. faecium [4]) was “bacteriostatically” and the EC50 (E. faecium [4]; relative bacterial viability after 14 h incubation) was 0.23 nM. The EC50 (E. faecium [4]; value of the response letter (earlier manuscript version)) was 0.21 ± 0.13 nM, the EC50 (S. aureus; read-out: EC50) was greater than 2000 nM and the EC50 (S. aureus; [6]) was greater than 2000 nM. The EC50 (E. coli; read-out: EC50) was greater than 2000 nM, the EC50 (E. coli; [6]) was greater than 2000 nM and the “binding to ecSHMT (DSF)” value (ecSHMT) was “bound to ecSHMT”. For the same compound, the “ΔTm (thermal stability of efmSHMT)” value (efmSHMT [5]) was 7 °C.
